Results: patent US11958796B2, “Hydrophilic and particularly water soluble DBOV-derivatives” (Max-Planck-Gesellschaft zur Förderung der Wissenschaften …, priority 2018, dated 2024)

Experiments:
[1] = system: fixed cell samples; assay: blinking-mode imaging of fixed samples in PBS; details: fixed samples in PBS without special imaging buffer; continuous exposure, laser intensity 10 kW/cm^2 for 90 min
From the text: After the aforementioned live cell imaging, the samples were fixed and imaged in phosphate-buffered saline (PBS) without special imaging buffer.

[2] = system: living cells; assay: cytotoxicity test in living cells; assay type: cell-based; details: concentration of 1 μM
Procedure: (§1) More specifically, the cytotoxicity of DBOV-Mes-OTEG was tested in living cells. […] Moreover, the uptake of DBOV-Mes-OTEG into living cells was investigated by imaging 21 hours with low laser intensity at the spinning disk confocal microscopy (Visitron).

[3] = system: living cells; assay: uptake into living cells, spinning disk confocal microscopy; assay type: cell-based
Procedure: as §1

[4] = solubility in water; assay type: physicochemical; details: room temperature
Procedure: In accordance with the present invention, the solubility of the compound having the general formula (1) in water at 23° C. is measured as follows: 1.0 mg sample is weighed into an Erlenmeyer flask and is then mixed homogeneously with 4 ml of water with a spatula at 23° C. The remaining substance on the spatula is stripped off with a magnetic stirrer bar, which is then added to the Erlenmeyer flask. While stirring with a magnetic stirrer, water is added dropwise with a burette until the solution in the Erlenmeyer flask becomes clear at 23° C. After that, the solubility of compound in water is calculated by calculating the ratio of weighed compound divided by the volume of added water and then by recalculating this ratio to 1 l of water.

solubility in water [4]: 100 µg/mL
Substance: 3,4,5-tris(2,5,8,11-tetraoxatridecan-13-yloxy)phenyl substituted 6,14-dimesityldibenzo[hi,st]ovalene [DBOV-Mes-OTEG]
stability of blinking signals (photostability) [1]: no significant decrease of blinking signals
cytotoxicity [2]: does not show any significant toxicity
intracellular location ([3]; after 21 hours incubation): in the nucleus and nuclear membrane
uptake / intracellular location ([3]; beginning of the incubation): taken into the cytoplasm
